Like-named read-outs stand apart in the source and are kept apart here.
Tests used:
[1] = target: PrP^Sc content in the cells (Mus musculus, UniProt P04925); conditions: read-out: IC50 (concentration for which 50% of the PrP^Sc content in the cells is inhibited); cited from earlier work
[2] = target: PrP^Sc from infected N2a58/22L cells (Mus musculus, UniProt P04925); assay type: cell-based, murine
[3] = target: PrP^C from uninfected N2a58 cells (Mus musculus, UniProt P04925); assay type: cell-based, murine; conditions: uninfected cells, 1 to 10 μM, FIG. 3
PrP^C from uninfected N2a58 cells, sequence (P04925 23-230 limits assumed): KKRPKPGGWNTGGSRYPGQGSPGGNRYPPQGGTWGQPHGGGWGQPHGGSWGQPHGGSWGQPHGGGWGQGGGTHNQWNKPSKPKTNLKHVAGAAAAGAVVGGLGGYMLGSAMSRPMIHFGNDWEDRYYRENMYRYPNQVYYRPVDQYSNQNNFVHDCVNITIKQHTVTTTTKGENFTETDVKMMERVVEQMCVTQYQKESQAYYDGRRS

[4] = prolonged incubation up to 14 days, 5 and 20 μM, FIG. 4

PrP^Sc from infected N2a58/22L cells, sequence (P04925 23-230 limits assumed): as above
PrP^Sc content in the cells, sequence (P04925 23-230 limits assumed): as above

## N#Cc1c(N)nc(Sc2ccccc2N)c(C#N)c1-c1ccco1 [2-amino-6-[(2-aminophenyl)thio]-4-(2-furyl)pyridine-3,5-dicarbonitrile]
[1]
  IC50: ~15 µM

## Nc1nccc(-c2ccc(-c3cccs3)s2)n1 [compound B, 4-(5-thienyl-2-thienyl)-2-(amino)-pyrimidine]
[2]; 14 days, 20 μM, FIG. 6
  amount of oligomeric forms observed compared with compound A: much greater than for the compound A
[2]; N2a58/22L cells, 3 days, 5 to 20 μM
  amount of oligomeric forms of PrP^Sc at 5 μM versus higher concentrations: identical to that observed for the concentration of 10 or 20 μM
[2]; incubation period of 14 days
  amplification capacity, comparative kinetics between compounds B and A: greater amplification capacity

## CSc1nccc(-c2ccc(Br)s2)n1 [compound A, 4-(5-bromo-2-thienyl)-2-(methylthio)pyrimidine]
[3]
  oligomerization of PrP^C in the cells: does not increase the oligomerization of PrP^C
[2]; 5 μM
  time at which the state of equilibrium of amplified oligomeric forms is reached: 11 days
[2]; 20 μM
  time at which the state of equilibrium of amplified oligomeric forms is reached: 3 days
[2]; 20 μM, N2a58/22L cells, immunoblot after PK
  increase in the signal on the oligomeric forms compared with an untreated control: approximately 90 fold
[2]; infected cells, immunoblotting after proteinase K, FIGS. 1 and 2
  effect on the amount of PrP^Sc in the infected cells: notably increases the amount of PrP^Sc
[2]; [4]
  appearance of oligomeric forms of greater size than those observed over 3 days: does not induce the appearance of oligomeric forms having a size greater
  depletion of monomeric form PrP^Sc27-30 to the benefit of oligomeric forms around 50-60 kDa: No depletion

## COc1ccc(S(=O)(=O)NNC(=O)c2ccc(Cn3cnc(Cl)c3Cl)o2)cc1 [N′-1-({5-[(4,5-dichloro-1H-imidazol-1-yl)methyl]-2-furyl}carbonyl)-4-methoxybenzene-1-sulfonohydrazide]
[1]
  IC50: ~15 µM

Reference: US8435744B2 (priority 2005, dated 2013)
